Earlier results, collected in article PMC5513211, “PA-6 inhibits inward rectifier currents carried by V93I and D172N gain-of-function KIR2.1 channels, but increases channel protein expression” (Journal of Biomedical Science, 2017).
pIC50: −log10 of the molar value.

Assays:
[1] = system: Kv7.1 channel, V307L; conditions: cited from earlier work
[2] = system: WT KIR2.1; conditions: read-out: IC50 (sensitivity for chloroquine); whole cell mode; cited from earlier work
[3] = system: D172N KIR2.1; conditions: read-out: IC50 (sensitivity for chloroquine); whole cell mode; cited from earlier work
[4] = system: Kv11.1 (hERG) channel, WT and N558K; conditions: N558K less sensitive than WT; cited from earlier work

CCS(=O)(=O)N(C)[C@H]1c2cc(C#N)ccc2OC(C)(C)[C@@H]1O [Chromanol293B]
Increase of IC50 value by V307L mutation ([1]; V307L versus WT Kv7.1): 7 fold

CCN(CC)CCCC(C)Nc1ccnc2cc(Cl)ccc12 (centres unmarked) [chloroquine]
pIC50 [2]: 5.62 to 5.85
pIC50 [3]: 5.48 to 5.92

CC[C@H]1CN2CC[C@H]1C[C@@H]2[C@@H](O)c1ccnc2ccc(OC)cc12 [hydroquinidine]
Difference in IC50 values for WT and N558K Kv11.1 channels [4]: 3.5 fold

OC(c1cc(C(F)(F)F)nc2c(C(F)(F)F)cccc12)C1CCCCN1 (centres unmarked) [mefloquine]
Sensitivity of V307L Kv7.1 versus WT variant [1]: equally sensitive
